# Test results reported in patent publication EP1487791B1, “A NOVEL ANTIFUNGAL MOLECULE 2-(3,4-DIMETHYL-2,5-DIHYDRO-1H-PYRROL-2-YL)- METHYLETHYL PENTANOATE” (priority 2002, dated 2003).
# System: A. fumigatus
# Assay: Quantification of colony forming units in organs of infected mice
# Format: in vivo, Balb/C mice
# From the text: In vivo efficacy of the compound against A. fumigatus infection was studied in the Balb/C mice of 6-8 weak of age of either sex, weighing 15-20 g each. The mice model of aspergillosis described by Dixon et al (1989), was used to study the effects of compound on in vivo infection of A. fumigatus.
# The animals were housed in the micro-barrier cages on sterile bedding and fed ad libitum water and food. The mice were divided into 6 groups and each group contained 8-10 animals. The mice were infected experimentally with A. fumigatus. Three days prior to infection with conidia, mice were injected subcutaneously with 3 doses (250.0 mg/kg/day) of cortisone acetate in 400.0 µl of PBS. On the infection day, each mouse received 2x10^7 conidia by nasal instillation of a single droplet of conidial suspension. The animals of this model developed invasive aspergillosis and all the infected animals died within 4-6 days.
# A. fumigatus (190/96) isolate was grown on Sabouraud dextrose agar plates at 37 °C for 4 days. The conidia were collected from the culture plates using PBS (pH 7.2) containing 0.05% Tween 80 (Sigma Chemicals) and the suspension was filtered through sterile glass wool. The conidia were pelleted by centrifugation at 2000 rpm and re-suspended in PBS, pH 7.2. The number of conidia, was counted and adjusted to 1x10^8 conidia/ml. The viability of the conidia was determined by plating the dilutions of suspensions on Sabouraud dextrose agar.
# The dosing of the animals (cortisone treated and challenged) with compound in 6 different groups was initiated within 30 min after challenge with A. fumigatus conidia. Group I: The mice were treated orally with 7 doses of 25.0 mg/kg/day of the compound. Group II: The animals infected with A. fumigatus conidia were given 50.0 mg/kg/day of the compound for 7 days orally. Group III: The animals in this group were given 7 oral doses of 100.0 mg/kg/day of the compound. Group IV: In this group of animals, 7 oral doses of the compound (200.0 mg/kg/day) were given. Group V: The animals of this group were treated with 7 doses of 400.0 mg/kg/day orally over a period of 7 days. Group VI: The animals of this group acted as control and were treated orally with 7 doses of 400 µl PBS containing solvent.
# (§1) The mice were kept under constant watch and those getting moribund, dying or survived up to 10 days were sacrificed. The autopsy was performed on the mice who had died to remove their organs for quantification of colony forming units (CFU). The lungs, livers and kidneys of the mice were removed aseptically, placed in sterile PBS (pH 7.2) and homogenized with teflon pestle mortar. The CFU in the animals were determined by plating 10 fold dilutions of organ homogenates on Sabouraud dextrose agar containing 0.05% triton X-100. The triton X-100 limited the colony size and thus greatly facilitated colony counting (Frosco, 1992). After an incubation for 48 h at 37 °C, colonies were counted and results were expressed as CFU per organ. The survival time and CFU indicating the fungal burden in various organs were considered
# as §1, with “The survival time and CFU indicating the fungal burden in various organs were considered” left out
# [1] = Group I, 25.0 mg/kg body weight oral
# [2] = Group II, 50.0 mg/kg body weight oral
# [3] = Group III, 100.0 mg/kg body weight oral
# [4] = Group IV, 200.0 mg/kg body weight oral
# [5] = Group V, 400.0 mg/kg body weight oral
smiles,measurement,setting,value
"CCCCC(=O)OC(C)CC1NCC(C)=C1C (stereo not shown) [PC-1, 2-(3,4-dimethyl-2,5-dihydro-1H-pyrrol-2-yl)-1-methylethyl pentanoate]",colony counts as compared to controls,"400 mg/kg body weight, p < 0.001",reduced the colony counts significantly
same,number of CFUs in the kidneys,100.0 to 400.0 mg/kg body weight,significant reduction
same,CFU/Organs (Mean+ SD) Kidney,[1],1402.5+350.09 CFU/Organs
same,CFU/Organs (Mean+ SD) Liver,[1],255.0+72.45 CFU/Organs
same,CFU/Organs (Mean+ SD) Lung,[1],907.5+246.09 CFU/Organs
same,CFU/Organs (Mean+ SD) Kidney,[2],1040.5+441.78 CFU/Organs
same,CFU/Organs (Mean+ SD) Liver,[2],290.6+135.58 CFU/Organs
same,CFU/Organs (Mean+ SD) Lung,[2],900.0+230.29 CFU/Organs
same,CFU/Organs (Mean+ SD) Kidney,[3],733.3+394.69 CFU/Organs
same,CFU/Organs (Mean+ SD) Liver,[3],216.7+108.97 CFU/Organs
same,CFU/Organs (Mean+ SD) Lung,[3],650.1+171.85 CFU/Organs
same,CFU/Organs (Mean+ SD) Kidney,[4],683.3+352.67 CFU/Organs
same,CFU/Organs (Mean+ SD) Liver,[4],225.0+91.85 CFU/Organs
same,CFU/Organs (Mean+ SD) Lung,[4],525.0+251.56 CFU/Organs
same,CFU/Organs (Mean+ SD) Kidney,[5],225.0+157.39 CFU/Organs
same,CFU/Organs (Mean+ SD) Liver,[5],165.0+117.84 CFU/Organs
same,CFU/Organs (Mean+ SD) Lung,[5],180.0+127.75 CFU/Organs
same,effect on the CFUs in the lung tissue,doses of 25.0 and 50.0 mg/kg body weight,did not have any effect
same,effect of the compound on CFUs in liver,liver,very less effect
